Source: US5135914A, “Substituted derivatives of 3-amino-2-hydroxypropionic acid as inhibitors of renin” (Warner-Lambert Company, priority 1988, dated 1992)

Biological target: T1, renin (Homo sapiens, UniProt P00797)
T1 sequence (P00797 67-406): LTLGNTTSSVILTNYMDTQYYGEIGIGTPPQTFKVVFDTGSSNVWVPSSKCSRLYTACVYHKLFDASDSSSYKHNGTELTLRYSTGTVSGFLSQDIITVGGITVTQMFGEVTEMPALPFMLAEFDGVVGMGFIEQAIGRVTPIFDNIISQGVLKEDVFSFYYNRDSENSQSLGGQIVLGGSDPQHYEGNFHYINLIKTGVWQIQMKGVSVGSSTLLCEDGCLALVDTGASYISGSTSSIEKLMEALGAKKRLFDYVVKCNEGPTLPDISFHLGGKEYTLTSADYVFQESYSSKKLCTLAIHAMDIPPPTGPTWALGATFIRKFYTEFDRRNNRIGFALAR
Test: in vitro renin inhibition, radioimmunoassay for angiotensin I
Format: biochemical
Details: incubated for two hours at 37° in the presence of angiotensinogen, read-out: IC50 (molar concentration of test compound causing a 50% inhibition of the renin activity)
Experimental: The compounds of the present invention are valuable because of their ability to inhibit renin in an in vitro assay. Activity is determined by a standard radioimmunoassay for angiotensin I. In the assay, the enzyme renin, incubated for two hours at 37° in the presence of a substrate, angiotensinogen, generates the product angiotensin I. Test compounds are added to the incubation mixture. Relative activity is reported as the IC50, which is the molar concentration of test compound causing a 50% inhibition of the renin activity.
The in vitro test employed is more fully described in "Methods in Enzymatic Analysis", Bergmeyer, J., and Grass, N., eds., 3rd edition Weinheim: Verlag Chemie, pp. 251-258 (1984).

CC(C)C[C@H](NC(=O)[C@H](Cc1c[nH]cn1)NC(=O)[C@H](Cc1ccccc1)NC(=O)OC(C)(C)C)C(O)C(=O)OC(C)C (some centres unmarked) [Example 1]
IC50: 1000 nM

CC(C)C[C@H](NC(=O)[C@H](Cc1c[nH]cn1)NC(=O)C(Cc1cccc2ccccc12)Cc1cccc2ccccc12)[C@@H](O)C(=O)OC(C)C [Example 1b, [2R-[2R*,3S*(S*)]]-2-hydroxy-3-[[-3-(1H-imidazol-4-yl)-2-[[3-(1-naphthalenyl)-2-(1-naphthalenylmethyl)-1-oxopropyl]amino]-1-oxopropyl]amino]-5-methylhexanoic acid, 1-methylethyl ester]
IC50: 140 nM
